Assay results from US12252644B2, “Polarizer and image display device” (FUJIFILM Corporation, priority 2019, dated 2025).

Experiment: Measurement of maximum absorption wavelength
Type: physicochemical
Conditions: solution in a good solvent, spectrophotometer UV-3150, 250 to 800 nm
Method: The maximum absorption wavelength (nm) of the dichroic material in the present specification is acquired from an ultraviolet visible spectrum in a wavelength range of 380 to 800 nm measured by a spectrophotometer using a solution prepared by dissolving the dichroic material in a good solvent.
The maximum absorption wavelengths of the dichroic materials used in the examples and the comparative examples were measured. The maximum absorption wavelength was acquired from the ultraviolet visible light spectrum in a wavelength range of 250 to 800 nm which was measured by a spectrophotometer (product name, “UV-3150”, manufactured by Shimadzu Corporation) using a solution in which the dichroic material was dissolved in a good solvent.

CC(=O)OCCCCCCCCCOc1ccc(N=Nc2ccc(N=Nc3ccc(N(C)CCOC(C)=O)cc3)cc2)cc1 [Example M-6]
Second dichroic material maximum absorption wavelength: 465 nm

CCN(CC)c1ccc(N=Nc2ccc(N=Nc3ccc(OCCCCCCCCCOC(C)=O)cc3)cc2)cc1 [Example M-5]
Second dichroic material maximum absorption wavelength: 484 nm

CCC(=O)OCCN(C)c1ccc(N=Nc2ccc(N=Nc3ccc(OCCCCCCCCCOC(C)=O)cc3)cc2)cc1 [Example M-1]
Second dichroic material maximum absorption wavelength: 466 nm

C=CC(=O)OCCN(CC)c1ccc(N=Nc2ccc(N=Nc3ccc(OCCCCCCCCCOC(=O)CC)cc3)cc2)cc1 [Example M-3]
Second dichroic material maximum absorption wavelength: 471 nm

CCOC(=O)CCCCOc1ccc(N=Nc2ccc(N=Nc3ccc(N=Nc4ccc(OCCCCC(=O)OCC)cc4)cc3C)cc2)cc1 [Example Y-2]
Third dichroic material maximum absorption wavelength: 418 nm

C=CC(=O)OCCCCOc1ccc(N=Nc2ccc(N=Nc3ccc(N=Nc4ccc(OCCCCOC(C)=O)cc4)cc3)c(C)c2)cc1 [Example Y-1]
Third dichroic material maximum absorption wavelength: 418 nm

C=CC(=O)OCCN(CC)c1ccc(N=Nc2nc3sc(N=Nc4ccc(OCCCCCCCCCOC(C)=O)cc4)cc3s2)cc1 [Example C-1]
First dichroic material maximum absorption wavelength: 591 nm

CCC(=O)OCCCCCCCCCOc1ccc(N=Nc2ccc(N=Nc3ccc(N(CC)CCOC(=O)CC)cc3)cc2)cc1 [Example M-2]
Second dichroic material maximum absorption wavelength: 471 nm

CCC(=O)OCCCCCCCCCOc1ccc(N=Nc2ccc(N=Nc3ccc(N(CC)CCC#N)cc3)cc2)c(Cl)c1 [Example M-4]
Second dichroic material maximum absorption wavelength: 460 nm
